Series [1] concerns T47D cells. Kind of series: Scratch motility assay, T47D. In kind it is cell-based, human. The following applies: IC50 and 2 x IC50; 3, 6, 9 h. How it is done: Cells were grown to 100 % confluence in 12-well tissue culture plates and the following day a sterile 2 µl pipette tip was used to make a vertical scratch in the cell monolayer of each well and the cells treated with mitomycin C (M4287; Sigma Aldrich) at a final concentration of 10 μg/ml to inhibit proliferation. Cells were subsequently treated with MMV652103 or vehicle and imaged at 0, 3, 6 and 9 h post wound formation and ImageJ v1.50i software was used to calculate the area of the scratch (Schneider et al., 2012[73]). The total areas migrated was determined by subtracting the area for a specific time point from the area measured at 0 h.

Series [2] is described as follows: Solubility in DMSO at 10 mM. The note with it: final concentration 10 mM. In kind it is physicochemical.
Series [3] deals with MCF7 cells. In words: Clonogenic survival assay, MCF7. The note with it: IC50, 2 x IC50, 4 x IC50 for 24 h. In kind it is cell-based, human. How it is done:
Cells were pre-cultured and treated with the indicated concentrations of MMV652103 for 24 h, washed, collected and re-plated, in drug-free medium, at 1000-2000 cells per well in 35 mm dishes, in triplicate. After 10-21 days the surviving cells were fixed with 3:1 methanol: acetic acid and stained with 0.5 % crystal violet (Sigma-Aldrich, USA) in 100 % methanol. Quantification of colonies was performed using ImageJ 1.5J8 software (USA) (Schneider et al., 2012[73]). Number of colonies was determined for each drug concentration and expressed as a percentage of the vehicle treated control.

Series [4] has as its target T1, PIK3CA/ PIK3R1 (Homo sapiens, UniProt P42336).
T1 construct: purchased Carna Biosciences Inc; Invitrogen Corporation
Kind of series: ADP-Glo lipid kinase assay, PIK3CA/PIK3R1. In kind it is biochemical. The following applies: 10 µM compound. (In ADP-Glo the light output rises with the ADP produced.)

In series [5] the target is T2, PIK3C2G (Homo sapiens, UniProt O75747).
T2 construct: purchased Carna Biosciences Inc; Invitrogen Corporation
In words: ADP-Glo lipid kinase assay, PIK3C2G. In kind it is biochemical. As to the method:
A non-radiometric kinase assay (ADP-Glo™ Assay, Promega, Madison, Wi, USA) was used for measuring the kinase activity of the 2 lipid kinases, phosphatidylinositol 4-kinase beta (encoded by the PI4KB gene) and phosphatidylinositol-4-Phosphate 3-Kinase Catalytic Subunit Type 2 Gamma (encoded by the PIK3C2G gene). All kinase assays were performed in 96-well half-area microtiter plates from Greiner Bio-One (Frickenhausen, Germany) in 25 µl reaction volumes. […] In addition, the assay for PI4KB contained 3 mM MnCl2 and the assay for PIK3C2G contained 3 mM MgCl2. Kinases from external vendors (Carna Biosciences Inc.; Invitrogen Corporation; Millipore Corporation) were expressed, purified and quality-controlled by virtue of the vendors readings. The reaction cocktails were incubated at 30 °C for 60 min. The reaction was stopped with 25 µl ADP-Glo reagent per well. Plates were incubated for 40 min at RT, followed by the addition of 50 µl kinase detection reagent per well and incubation for 60 min at RT. Signal was determined with a microplate luminescence reader (Victor, Perkin Elmer). […]
For each kinase, the median value of the counts per second (cps) of three wells with complete reaction cocktails, but without kinase, was defined as "low control" (n=3). […] The residual activity (in %) for each well of each row of a particular plate was calculated by using the following formula: […]

In series [6] the test system is MCF7 cells. Kind of series: GSH-Glo Glutathione assay. In kind it is cell-based, human. The following applies: MCF7, 24 h; MMV652103 ½ IC50 and IC50, doxorubicin IC50 (9.84 nM). As to the method: The increase in ROS levels results in a decrease in the levels of antioxidants. To confirm the presence of intracellular ROS, the levels of the antioxidant, glutathione (GSH), was measured using the GSH-Glo™ Glutathione assay kit (V6911, Promega, Wisconsin, USA), according to the manufacturer's instructions. Briefly, cells (2500-4500 cells per well) were seeded in opaque 96 well plates. Cells were treated for 24 h with either vehicle or MMV652103. Thereafter, the cell culture medium was removed and 100 μl of 1X GSH-Glo™ Reagent (prepared using Luciferin-NT substrate and Glutathione S-Transferase each diluted 1:100 in GSH-Glo™ Reaction Buffer) was added to each well. The plate was then mixed briefly on a shaker and incubated for 10 min at RT. Thereafter, 100 μl reconstituted Luciferin Detection Reagent was added to each well. The plate was then incubated for 15 min RT in order to stabilize the luminescence signal. The plate was read using the GloMax® Explorer Multimode plate reader (Promega, Wisconsin, USA).

T2 sequence (O75747 whole entry): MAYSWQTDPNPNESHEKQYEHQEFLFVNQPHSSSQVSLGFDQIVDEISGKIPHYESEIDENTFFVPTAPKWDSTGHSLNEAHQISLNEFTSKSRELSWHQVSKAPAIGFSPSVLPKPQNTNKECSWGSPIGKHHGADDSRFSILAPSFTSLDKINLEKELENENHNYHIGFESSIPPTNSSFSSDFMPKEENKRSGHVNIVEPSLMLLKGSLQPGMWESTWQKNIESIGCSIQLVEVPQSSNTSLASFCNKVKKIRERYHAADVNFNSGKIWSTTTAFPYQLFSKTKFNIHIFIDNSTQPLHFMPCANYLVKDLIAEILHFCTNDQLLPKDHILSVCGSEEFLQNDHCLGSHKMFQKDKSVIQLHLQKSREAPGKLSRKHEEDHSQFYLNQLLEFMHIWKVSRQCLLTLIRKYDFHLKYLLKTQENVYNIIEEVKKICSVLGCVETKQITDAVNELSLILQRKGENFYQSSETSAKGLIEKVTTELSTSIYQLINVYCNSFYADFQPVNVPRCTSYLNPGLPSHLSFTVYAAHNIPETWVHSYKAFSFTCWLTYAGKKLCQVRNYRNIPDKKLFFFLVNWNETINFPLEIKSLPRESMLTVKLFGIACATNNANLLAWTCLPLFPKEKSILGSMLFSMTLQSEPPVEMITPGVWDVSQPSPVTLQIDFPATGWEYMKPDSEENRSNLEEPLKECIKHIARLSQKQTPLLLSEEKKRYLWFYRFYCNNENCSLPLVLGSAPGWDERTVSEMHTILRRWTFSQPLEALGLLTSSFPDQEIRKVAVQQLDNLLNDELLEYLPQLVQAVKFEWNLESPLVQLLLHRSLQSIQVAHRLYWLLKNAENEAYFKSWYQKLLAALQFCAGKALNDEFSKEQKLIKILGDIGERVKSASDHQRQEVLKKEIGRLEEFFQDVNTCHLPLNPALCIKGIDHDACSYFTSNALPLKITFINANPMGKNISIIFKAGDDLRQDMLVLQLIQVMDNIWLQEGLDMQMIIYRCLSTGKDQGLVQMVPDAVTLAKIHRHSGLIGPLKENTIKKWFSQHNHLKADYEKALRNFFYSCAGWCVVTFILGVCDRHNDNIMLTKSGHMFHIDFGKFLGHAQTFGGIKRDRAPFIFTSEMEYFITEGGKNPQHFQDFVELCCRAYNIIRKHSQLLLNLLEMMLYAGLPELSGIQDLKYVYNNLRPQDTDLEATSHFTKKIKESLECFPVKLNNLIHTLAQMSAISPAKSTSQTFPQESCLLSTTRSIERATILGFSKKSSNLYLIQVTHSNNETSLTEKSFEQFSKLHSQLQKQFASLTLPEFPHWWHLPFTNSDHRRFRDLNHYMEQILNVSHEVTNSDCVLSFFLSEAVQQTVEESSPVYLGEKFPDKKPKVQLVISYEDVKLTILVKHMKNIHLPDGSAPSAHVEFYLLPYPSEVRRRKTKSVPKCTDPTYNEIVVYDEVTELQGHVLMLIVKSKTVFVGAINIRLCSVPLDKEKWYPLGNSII
T1 sequence (P42336 whole entry): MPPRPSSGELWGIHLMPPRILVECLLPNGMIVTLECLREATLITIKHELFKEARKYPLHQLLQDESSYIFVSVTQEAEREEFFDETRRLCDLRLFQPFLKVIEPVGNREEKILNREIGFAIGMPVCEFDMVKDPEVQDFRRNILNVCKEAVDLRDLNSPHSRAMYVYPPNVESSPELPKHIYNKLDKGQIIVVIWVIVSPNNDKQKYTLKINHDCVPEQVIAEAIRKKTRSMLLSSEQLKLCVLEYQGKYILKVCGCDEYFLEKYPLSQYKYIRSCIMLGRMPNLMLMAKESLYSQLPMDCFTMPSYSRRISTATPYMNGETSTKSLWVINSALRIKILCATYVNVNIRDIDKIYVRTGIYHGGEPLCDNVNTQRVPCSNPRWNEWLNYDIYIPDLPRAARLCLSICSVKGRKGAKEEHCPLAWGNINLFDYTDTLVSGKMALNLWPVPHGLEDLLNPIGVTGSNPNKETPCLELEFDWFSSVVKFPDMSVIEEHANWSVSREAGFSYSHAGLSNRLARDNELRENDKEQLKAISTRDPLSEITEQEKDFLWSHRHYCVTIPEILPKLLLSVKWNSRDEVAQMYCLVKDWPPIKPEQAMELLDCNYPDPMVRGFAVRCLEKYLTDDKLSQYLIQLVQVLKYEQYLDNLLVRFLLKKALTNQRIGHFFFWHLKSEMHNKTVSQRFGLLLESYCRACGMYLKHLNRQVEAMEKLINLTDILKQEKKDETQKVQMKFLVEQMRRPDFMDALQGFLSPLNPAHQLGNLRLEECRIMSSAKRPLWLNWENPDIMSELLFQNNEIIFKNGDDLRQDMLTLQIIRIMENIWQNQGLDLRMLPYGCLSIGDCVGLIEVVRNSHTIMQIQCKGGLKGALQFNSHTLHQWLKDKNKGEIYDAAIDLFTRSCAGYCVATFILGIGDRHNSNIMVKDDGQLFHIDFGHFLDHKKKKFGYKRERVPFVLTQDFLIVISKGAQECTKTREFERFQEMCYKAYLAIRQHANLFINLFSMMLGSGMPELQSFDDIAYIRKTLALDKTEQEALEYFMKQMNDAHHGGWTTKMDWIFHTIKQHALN
T1 sequence (P27986 whole entry partner): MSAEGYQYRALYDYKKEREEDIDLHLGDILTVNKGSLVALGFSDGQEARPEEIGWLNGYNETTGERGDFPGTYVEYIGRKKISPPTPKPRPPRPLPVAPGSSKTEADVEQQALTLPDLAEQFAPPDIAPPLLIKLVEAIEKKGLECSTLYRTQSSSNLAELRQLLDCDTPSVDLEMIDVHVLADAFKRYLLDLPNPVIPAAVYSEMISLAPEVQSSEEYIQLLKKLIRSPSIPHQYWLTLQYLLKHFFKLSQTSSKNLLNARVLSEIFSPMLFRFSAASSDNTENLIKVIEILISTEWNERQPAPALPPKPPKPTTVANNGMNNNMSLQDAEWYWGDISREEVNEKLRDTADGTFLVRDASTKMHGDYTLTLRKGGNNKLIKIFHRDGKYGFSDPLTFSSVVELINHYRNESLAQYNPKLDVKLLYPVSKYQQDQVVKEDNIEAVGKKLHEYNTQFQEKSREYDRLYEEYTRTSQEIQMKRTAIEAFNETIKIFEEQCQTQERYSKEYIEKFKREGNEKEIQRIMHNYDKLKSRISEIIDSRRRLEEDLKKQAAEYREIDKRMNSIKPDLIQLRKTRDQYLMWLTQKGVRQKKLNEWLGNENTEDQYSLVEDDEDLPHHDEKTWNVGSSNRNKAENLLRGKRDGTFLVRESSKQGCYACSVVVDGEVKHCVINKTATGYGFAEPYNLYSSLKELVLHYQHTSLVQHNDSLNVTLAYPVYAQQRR

For `CS(=O)(=O)c1ccc(-c2cnc3ccc(-c4cccc(S(C)(=O)=O)c4)nn23)cc1` [MMV652103], the T47D cell migration result in series [1] is listed as “significant reduction”. In addition, the “Solubility (DMSO)” value was “soluble in DMSO” in series [2] and “Successful” in series [2] (listed as 652103). Besides, the “number of MCF7 cell colonies” value in series [3] is “dose-dependent reduction”. The remaining activity (as a rule, what remains of the control signal, in per cent) at 10 µM amounted to 3% in series [4] and 4% in series [5] (10 µM compound). Moreover, the IC50 (usually the concentration that inhibits the measured activity by half) in series [5] (ADP-Glo) is 0.085 µM. In addition, the “levels of GSH” value in series [6] is on record as “significant decrease”.

For the origin of these results see publication PMC9149975, “The diaryl-imidazopyridazine anti-plasmodial compound, MMV652103, exhibits anti-breast cancer activity” (EXCLI Journal, 2022).
